Test results: patent US20240228572A1 (i2o Therapeutics, Inc., priority 2020, published 2024)
*1 amine or outer side, *2 acyl side, *3 side chain or, on linkers, in order; H or OH if unused. Where a SMILES comes first, the peptide text is derived from it. Side-chain parts run from the residue outwards. [ ]: non-standard residue; d: D form. The star is where a group is joined. C20 diacid = O=C(O)CCCCCCCCCCCCCCCCCCC(=O)*; γGlu = O=C(O)[C@H](CCC(=O)[*:2])N[*:1]; AEEA = NCCOCCOCC(=O)O; Aib = CC(C)(N)C(=O)O

Columns and labels:
[1] = target: T1, human Glucagon receptor (GCGR) (Homo sapiens, UniProt P47871); test: cAMP accumulation assay, CHO-K1 cells expressing human GCGR; assay type: cell-based; settings: mean pEC50, Table 10
T1 construct: A cDNA fragment encoding the full-length open reading frame of the human GCGR; expressed in transfected cells; host or cells: CHO-K1, pcDNA3.1+, Lipofectamine 2000
Text: (§1) In the presence of the non-specific cAMP/cGMP phosphodiesterase inhibitor, 3-isobutyl-1-methylxanthine (IBMX), accumulating cAMP can be measured in vitro using common detection methods. Thus, it is possible to estimate an in vitro potency (pEC50) for peptides activating each of these receptors using fit dose-response curves for cAMP accumulation.
A cDNA fragment encoding the full-length open reading frame of the cynomolgus monkey GLP-1R (Genebank accession #XM_028847603 was cloned into pcDNA3.1+ for expression in CHO-K1 cells. A cDNA fragment encoding the full-length open reading frame of the human GCGR (Genebank accession #NM_000160 was cloned into pcDNA3.1+ for expression in CHO-K1 cells. A cDNA fragment encoding the full-length open reading frame of the rat GCGR (Genebank accession #NM_12091 was cloned into pcDNA3.1+ for expression in CHO-K1 cells. A cDNA fragment encoding the full-length open reading frame of the cynomolgus monkey GCGR (Genebank accession #XM_005585255 was cloned into pcDNA3.1+ for expression in CHO-K1 cells.
(§2) On day 1, CHO-K1 cells were plated at 1.5 million cells per T75 flask in 90% F12-K media supplemented with 10% FBS. On day 3 cells were transfected with 40 mcg of each expression plasmid using Lipofectamine 2000 transfection reagent. On day 5, cells were dispensed at 1000 cells per well in white 384-well OptiPlates in 5 mcL of assay buffer consisting of 1×HBSS, 5 mM HEPES, 0.5 mM IBMX, and 0.1% casein.
(§3) Peptides were serially diluted 4-fold in assay buffer to final concentrations ranging from 1×10^−9 M to 9.5×10^−16 M. Two assay controls consisting of 50 mcM forskolin (cAMP system maximum) or assay buffer only (cAMP system minimum) were also prepared. Five microliters of each peptide-concentration, or assay control, was added to triplicate wells and incubated for thirty minutes at room temperature. During this incubation step a 4× europium labelled cAMP tracer solution and a 4× Ulight®-anti-cAMP solution (consisting of an anti-cAMP monoclonal antibody labelled with Ulight™ dye) was prepared according to the manufacturer's protocol (PerkinElmer LANCE Ultra cAMP kit). Following this incubation, 5 mcL europium labelled cAMP and 5 mcL Ulight anti-cAMP antibody was added to each well. The plate was covered to prevent evaporation and incubated for 60 minutes at room temperature in the dark. Plates were read on an Envision fluorescent plate reader (PerkinElmer).
(§4) Test values were first normalized to the system maximum and system minimum averaged values in Excel using the formula: (test value−system min average)/(system max average -system min average)*100. Normalized test values represent a baseline corrected percentage of the system maximum cAMP response induced by forskolin. Data from up to 3 replicate tests were analyzed for each peptide. Potency values were estimated using GraphPad Prism software (v7.04) by fitting data to a 4-parameter logistic curve model: Y=Bottom+(Top−Bottom)/(1+10^((LogEC50−X))). The Hill slope was constrained to 1.0. EC50 values were converted to pEC50 values using the formula: pEC50=−Log (EC50).

[2] = target: T2, human GLP-1 receptor (GLP-1R) (Homo sapiens, UniProt P43220); test: cAMP accumulation assay, CHO-K1 cells stably expressing human GLP-1R; assay type: cell-based; settings: cAMP accumulation, mean pEC50, Table 10
T2 construct: expressed in transfected cells
Experimental: as §1
CHO-K1 cells stably expressing human GLP-1R (Genebank accession #NM_002062) were grown in 90% F12-K media supplemented with 10% FBS and 250 μg/ml G418.
as §2, §3, §4

T2 sequence (P43220 24-463): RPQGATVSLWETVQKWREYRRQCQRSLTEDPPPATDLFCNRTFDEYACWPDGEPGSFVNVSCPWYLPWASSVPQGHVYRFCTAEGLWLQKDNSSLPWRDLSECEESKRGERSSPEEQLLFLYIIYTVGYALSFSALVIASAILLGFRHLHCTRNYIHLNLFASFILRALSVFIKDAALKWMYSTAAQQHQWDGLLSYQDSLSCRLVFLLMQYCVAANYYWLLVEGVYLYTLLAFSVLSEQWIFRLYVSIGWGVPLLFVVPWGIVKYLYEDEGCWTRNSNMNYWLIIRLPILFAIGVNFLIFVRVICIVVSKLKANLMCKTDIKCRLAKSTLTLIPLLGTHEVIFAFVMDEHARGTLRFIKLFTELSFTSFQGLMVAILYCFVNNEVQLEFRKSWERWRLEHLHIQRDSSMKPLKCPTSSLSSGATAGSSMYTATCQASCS
T1 sequence (P47871 26-477): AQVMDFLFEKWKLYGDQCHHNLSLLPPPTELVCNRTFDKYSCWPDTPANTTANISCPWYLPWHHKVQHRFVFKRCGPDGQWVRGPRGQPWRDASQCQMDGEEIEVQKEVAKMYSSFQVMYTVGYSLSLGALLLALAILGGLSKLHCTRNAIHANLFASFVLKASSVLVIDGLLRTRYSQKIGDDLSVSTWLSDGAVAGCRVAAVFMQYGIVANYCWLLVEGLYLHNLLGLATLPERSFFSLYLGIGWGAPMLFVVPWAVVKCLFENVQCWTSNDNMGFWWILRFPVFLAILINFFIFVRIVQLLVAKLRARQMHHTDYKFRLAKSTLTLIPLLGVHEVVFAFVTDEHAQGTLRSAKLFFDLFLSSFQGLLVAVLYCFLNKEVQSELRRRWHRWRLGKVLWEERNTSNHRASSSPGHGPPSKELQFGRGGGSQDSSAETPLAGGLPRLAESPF

`CC(C)C[C@H](NC(=O)[C@H](Cc1ccc(O)cc1)NC(=O)[C@H](CCCCN)NC(=O)[C@H](CO)NC(=O)[C@H](Cc1ccc(O)cc1)NC(=O)[C@H](CC(=O)O)NC(=O)[C@H](CO)NC(=O)[C@@H](NC(=O)[C@H](Cc1ccccc1)NC(=O)[C@@H](NC(=O)CNC(=O)[C@H](Cc1c[nH]cn1)NC(=O)[C@H](CO)NC(=O)[C@@H](N)Cc1ccc(O)cc1)[C@@H](C)O)[C@@H](C)O)C(=O)N[C@@H](CC(=O)O)C(=O)NC(C)(C)C(=O)N[C@@H](CCCCN)C(=O)N[C@@H](Cc1ccc(O)cc1)C(=O)N[C@@H](C)C(=O)N[C@@H](CCCCNC(=O)CC[C@H](NC(=O)CC[C@H](NC(=O)COCCOCCNC(=O)CCCCCCCCCCCCCCCCCCC(=O)O)C(=O)O)C(=O)O)C(=O)N[C@@H](CCC(=O)O)C(=O)N[C@@H](Cc1ccccc1)C(=O)N[C@H](C(=O)NC(C)(C)C(=O)N[C@@H](Cc1c[nH]c2ccccc12)C(=O)N[C@@H](CC(C)C)C(=O)N[C@@H](CCC(=O)O)C(=O)N[C@@H](CC(=O)O)C(=O)N[C@@H](CCC(=O)O)C(=O)N1CCC[C@H]1C(=O)N[C@@H](CO)C(=O)N[C@@H](CO)C(=O)NCC(=O)N[C@@H](C)C(=O)N1CCC[C@H]1C(=O)N1CCC[C@H]1C(=O)N1CCC[C@H]1C(=O)N[C@@H](CO)C(=O)O)C(C)C` [Compound A5] (H-YSHGTFTSDYSKYLD[Aib]KYAK([γGlu-γGlu-AEEA-C20 diacid])EFV[Aib]WLEDEPSSGAPPPS-OH; N-terminus assumed) gave an EC50 [1] of 2.51 pM.

In the case of `CC(C)C[C@H](NC(=O)[C@H](Cc1ccc(O)cc1)NC(=O)[C@H](CCCCN)NC(=O)[C@H](CO)NC(=O)[C@H](Cc1ccc(O)cc1)NC(=O)[C@H](CC(=O)O)NC(=O)[C@H](CO)NC(=O)[C@@H](NC(=O)[C@H](Cc1ccccc1)NC(=O)[C@@H](NC(=O)CNC(=O)[C@H](Cc1c[nH]cn1)NC(=O)[C@H](CO)NC(=O)[C@@H](N)Cc1ccc(O)cc1)[C@@H](C)O)[C@@H](C)O)C(=O)N[C@@H](CC(=O)O)C(=O)N[C@@H](CCCCNC(=O)CC[C@H](NC(=O)CC[C@H](NC(=O)COCCOCCNC(=O)CCCCCCCCCCCCCCCCCCC(=O)O)C(=O)O)C(=O)O)C(=O)N[C@@H](CCCCN)C(=O)N[C@@H](Cc1ccc(O)cc1)C(=O)N[C@@H](C)C(=O)N[C@@H](CCC(N)=O)C(=O)N[C@@H](CCC(=O)O)C(=O)N[C@@H](Cc1ccccc1)C(=O)N[C@H](C(=O)NC(C)(C)C(=O)N[C@@H](Cc1c[nH]c2ccccc12)C(=O)N[C@@H](CC(C)C)C(=O)N[C@@H](CCC(=O)O)C(=O)N[C@@H](CCC(=O)O)C(=O)N[C@@H](CCC(=O)O)C(=O)N1CCC[C@H]1C(=O)N[C@@H](CO)C(=O)N[C@@H](CO)C(=O)NCC(=O)N[C@@H](C)C(=O)N1CCC[C@H]1C(=O)N1CCC[C@H]1C(=O)N1CCC[C@H]1C(=O)N[C@@H](CO)C(=O)O)C(C)C` [Compound A15] (H-YSHGTFTSDYSKYLDK([γGlu-γGlu-AEEA-C20 diacid])KYAQEFV[Aib]WLEEEPSSGAPPPS-OH), the EC50 [2] is reported as > 1 nM.

With `CC(C)C[C@H](NC(=O)[C@H](Cc1ccc(O)cc1)NC(=O)[C@H](CCCCN)NC(=O)[C@H](CO)NC(=O)[C@H](Cc1ccc(O)cc1)NC(=O)[C@H](CC(=O)O)NC(=O)[C@H](CO)NC(=O)[C@@H](NC(=O)[C@H](Cc1ccccc1)NC(=O)[C@@H](NC(=O)CNC(=O)[C@H](Cc1c[nH]cn1)NC(=O)[C@H](CO)NC(=O)[C@@H](N)Cc1ccc(O)cc1)[C@@H](C)O)[C@@H](C)O)C(=O)N[C@@H](CC(=O)O)C(=O)N[C@@H](CCCCNC(=O)CC[C@H](NC(=O)CC[C@H](NC(=O)COCCOCCNC(=O)CCCCCCCCCCCCCCCCCCC(=O)O)C(=O)O)C(=O)O)C(=O)N[C@@H](CCCCN)C(=O)N[C@@H](Cc1ccc(O)cc1)C(=O)N[C@@H](C)C(=O)N[C@@H](CO)C(=O)N[C@@H](CCC(=O)O)C(=O)N[C@@H](Cc1ccccc1)C(=O)N[C@H](C(=O)NC(C)(C)C(=O)N[C@@H](Cc1c[nH]c2ccccc12)C(=O)N[C@@H](CC(C)C)C(=O)N[C@@H](CCC(=O)O)C(=O)N[C@@H](CO)C(=O)N[C@@H](CCC(=O)O)C(=O)N1CCC[C@H]1C(=O)N[C@@H](CO)C(=O)N[C@@H](CO)C(=O)NCC(=O)N[C@@H](C)C(=O)N1CCC[C@H]1C(=O)N1CCC[C@H]1C(=O)N1CCC[C@H]1C(=O)N[C@@H](CO)C(=O)O)C(C)C` [Compound A24] (H-YSHGTFTSDYSKYLDK([γGlu-γGlu-AEEA-C20 diacid])KYASEFV[Aib]WLESEPSSGAPPPS-OH; N-terminus assumed) the EC50 [2] was > 1 nM.

In the case of `CC(C)C[C@H](NC(=O)[C@H](Cc1ccc(O)cc1)NC(=O)[C@H](CCCCN)NC(=O)[C@H](CO)NC(=O)[C@H](Cc1ccc(O)cc1)NC(=O)[C@H](CC(=O)O)NC(=O)[C@H](CO)NC(=O)[C@@H](NC(=O)[C@H](Cc1ccccc1)NC(=O)[C@@H](NC(=O)CNC(=O)[C@H](Cc1c[nH]cn1)NC(=O)[C@H](CO)NC(=O)[C@@H](N)Cc1ccc(O)cc1)[C@@H](C)O)[C@@H](C)O)C(=O)N[C@@H](CC(=O)O)C(=O)N[C@@H](CCCCNC(=O)CC[C@H](NC(=O)CC[C@H](NC(=O)COCCOCCNC(=O)CCCCCCCCCCCCCCCCCCC(=O)O)C(=O)O)C(=O)O)C(=O)N[C@@H](CCCCN)C(=O)N[C@@H](Cc1ccc(O)cc1)C(=O)N[C@@H](C)C(=O)N[C@@H](CCC(N)=O)C(=O)N[C@@H](CCC(=O)O)C(=O)N[C@@H](Cc1ccccc1)C(=O)N[C@H](C(=O)NC(C)(C)C(=O)N[C@@H](Cc1c[nH]c2ccccc12)C(=O)N[C@@H](CC(C)C)C(=O)N[C@@H](CCC(=O)O)C(=O)N[C@@H](CCC(N)=O)C(=O)N[C@@H](CCC(=O)O)C(=O)N1CCC[C@H]1C(=O)N[C@@H](CO)C(=O)N[C@@H](CO)C(=O)NCC(=O)N[C@@H](C)C(=O)N1CCC[C@H]1C(=O)N1CCC[C@H]1C(=O)N1CCC[C@H]1C(=O)N[C@@H](CO)C(=O)O)C(C)C` [Compound A17] (H-YSHGTFTSDYSKYLDK([γGlu-γGlu-AEEA-C20 diacid])KYAQEFV[Aib]WLEQEPSSGAPPPS-OH; N-terminus assumed), the EC50 [2] is reported as > 1 nM.

In the case of `CC(C)C[C@H](NC(=O)[C@H](Cc1ccc(O)cc1)NC(=O)[C@H](CCCCN)NC(=O)[C@H](CO)NC(=O)[C@H](Cc1ccc(O)cc1)NC(=O)[C@H](CC(=O)O)NC(=O)[C@H](CO)NC(=O)[C@@H](NC(=O)[C@H](Cc1ccccc1)NC(=O)[C@@H](NC(=O)CNC(=O)[C@H](Cc1c[nH]cn1)NC(=O)[C@H](CO)NC(=O)[C@@H](N)Cc1ccc(O)cc1)[C@@H](C)O)[C@@H](C)O)C(=O)N[C@@H](CC(=O)O)C(=O)N[C@@H](CCCCNC(=O)CC[C@H](NC(=O)CC[C@H](NC(=O)COCCOCCNC(=O)CCCCCCCCCCCCCCCCCCC(=O)O)C(=O)O)C(=O)O)C(=O)N[C@@H](CCCCN)C(=O)N[C@@H](Cc1ccc(O)cc1)C(=O)N[C@@H](C)C(=O)N[C@@H](CCC(N)=O)C(=O)N[C@@H](CCC(=O)O)C(=O)N[C@@H](Cc1ccccc1)C(=O)N[C@H](C(=O)NC(C)(C)C(=O)N[C@@H](Cc1c[nH]c2ccccc12)C(=O)N[C@@H](CC(C)C)C(=O)N[C@@H](CCC(=O)O)C(=O)N[C@@H](CC(N)=O)C(=O)N[C@@H](CCC(=O)O)C(=O)N1CCC[C@H]1C(=O)N[C@@H](CO)C(=O)N[C@@H](CO)C(=O)NCC(=O)N[C@@H](C)C(=O)N1CCC[C@H]1C(=O)N1CCC[C@H]1C(=O)N1CCC[C@H]1C(=O)N[C@@H](CO)C(=O)O)C(C)C` [Compound A16] (H-YSHGTFTSDYSKYLDK([γGlu-γGlu-AEEA-C20 diacid])KYAQEFV[Aib]WLENEPSSGAPPPS-OH), the EC50 [2] is reported as > 1 nM.
